Measured values from patent US9040530B2, “1,2,4-triazine-6-carboxamide kinase inhibitors” (Portola Pharmaceuticals, Inc., priority 2012, dated 2015).

Molecular target: T1, full length active recombinant SYK enzyme (Homo sapiens, UniProt P43405)
T1 construct: full length active recombinant SYK enzyme (Millipore, Calif.); purchased Millipore
Assay: Inhibition of Syk tyrosine phosphorylation activity (LANCE TR-FRET kinase assay)
Format: biochemical
Conditions: 1 nM active SYK enzyme, 550 nM SYK-substrate, 100 μM ATP, 1 hour at room temperature

Cc1cc(F)cc(Nc2nc(N[C@@H]3CCCC[C@@H]3N)nnc2C(N)=O)c1 [Example 22, 3-(((1R,2S)-2-aminocyclohexyl)amino)-5-((3-fluoro-5-methylphenyl)amino)-1,2,4-triazine-6-carboxamide]
IC50: 1 to 10 nM

NC(=O)c1nnc(N[C@@H]2CCCC[C@@H]2N)nc1Nc1ccc2cn[nH]c2c1 [Example 126, 5-((1H-indazol-6-yl)amino)-3-(((1R,2S)-2-aminocyclohexyl)amino)-1,2,4-triazine-6-carboxamide]
IC50: < 1 nM

NC(=O)c1nnc(N[C@@H]2CCOC[C@@H]2N)nc1Nc1ccc(Cl)c(Cl)c1 [Example 244, 3-(((3R,4R)-3-aminotetrahydro-2H-pyran-4-yl)amino)-5-((3,4-dichlorophenyl)amino)-1,2,4-triazine-6-carboxamide]
IC50: 10 to 100 nM

Cn1ccc2cc(Nc3nc(N[C@@H]4CCCC[C@@H]4N)nnc3C(N)=O)cnc21 [Example 154, 3-(((1R,2S)-2-aminocyclohexyl)amino)-5-((1-methyl-1H-pyrrolo[2,3-b]pyridin-5-yl)amino)-1,2,4-triazine-6-carboxamide]
IC50: 1 to 10 nM

NC(=O)c1nnc(N[C@@H]2CCOC[C@@H]2N)nc1Nc1cccc(C(F)(F)F)c1 [Example 251, 3-(((3R,4R)-3-aminotetrahydro-2H-pyran-4-yl)amino)-5-((3-(trifluoromethyl)phenyl)amino)-1,2,4-triazine-6-carboxamide]
IC50: 10 to 100 nM

CC[C@@H](Nc1nnc(C(N)=O)c(Nc2cccc(Cl)c2)n1)C(N)=O [Example 194, (R)-3-((1-amino-1-oxobutan-2-yl)amino)-5-((3-chlorophenyl)amino)-1,2,4-triazine-6-carboxamide]
IC50: 10 to 100 nM

CC(C)[C@@H](Nc1nnc(C(N)=O)c(Nc2ccc3ncccc3c2)n1)C(N)=O [Example 52, (R)-3-((1-amino-3-methyl-1-oxobutan-2-yl)amino)-5-(quinolin-6-ylamino)-1,2,4-triazine-6-carboxamide]
IC50: 10 to 100 nM

NC(=O)c1nnc(N[C@@H]2CCCC[C@@H]2N)nc1Nc1ccc(F)c(F)c1 [Example 18, 3-(((1R,2S)-2-aminocyclohexyl)amino)-5-((3,4-difluorophenyl)amino)-1,2,4-triazine-6-carboxamide]
IC50: 10 to 100 nM

NC(=O)c1nnc(N[C@@H]2CCOC[C@@H]2N)nc1Nc1ccc(C(F)(F)F)cc1 [Example 242, 3-(((3R,4R)-3-aminotetrahydro-2H-pyran-4-yl)amino)-5-((4-(trifluoromethyl)phenyl)amino)-1,2,4-triazine-6-carboxamide]
IC50: 10 to 100 nM

C[N+]1([O-])CCC(c2ccc(Nc3nc(N[C@@H]4CCCC[C@@H]4N)nnc3C(N)=O)cc2)CC1 (stereo partly drawn) [Example 29, 4-(4-((3-(((1R,2S)-2-aminocyclohexyl)amino)-6-carbamoyl-1,2,4-triazin-5-yl)amino)phenyl)-1-methylpiperidine 1-oxide]
IC50: 10 to 100 nM

CC(C)C[C@@H](Nc1nnc(C(N)=O)c(Nc2cccc(-c3ncccn3)c2)n1)C(N)=O [Example 77, (R)-3-((1-amino-4-methyl-1-oxopentan-2-yl)amino)-5-((3-(pyrimidin-2-yl)phenyl)amino)-1,2,4-triazine-6-carboxamide]
IC50: 10 to 100 nM

Cc1ccc(Nc2nc(N[C@@H]3CCCC(F)(F)[C@@H]3N)nnc2C(N)=O)cc1 [Example 167, 3-(((1R,2R)-2-amino-3,3-difluorocyclohexyl)amino)-5-(p-tolylamino)-1,2,4-triazine-6-carboxamide]
IC50: 10 to 100 nM

NC(=O)c1nnc(N[C@@H]2CCOC[C@@H]2N)nc1Nc1ccc(Cl)cc1 [Example 243, 3-(((3R,4R)-3-aminotetrahydro-2H-pyran-4-yl)amino)-5-((4-chlorophenyl)amino)-1,2,4-triazine-6-carboxamide]
IC50: 10 to 100 nM

CC(C)[C@@H](Nc1nnc(C(N)=O)c(Nc2cccc3c2ccn3C)n1)C(N)=O [Example 87, (R)-3-((1-amino-3-methyl-1-oxobutan-2-yl)amino)-5-((1-methyl-1H-indol-4-yl)amino)-1,2,4-triazine-6-carboxamide]
IC50: 10 to 100 nM

NC(=O)c1nnc(N[C@@H]2CCCC[C@@H]2N)nc1Nc1ccc2scnc2c1 [Example 41, 3-(((1R,2S)-2-aminocyclohexyl)amino)-5-(benzo[d]thiazol-5-ylamino)-1,2,4-triazine-6-carboxamide]
IC50: 1 to 10 nM

Cc1ccc(Nc2nc(N[C@H](CC(C)C)C(N)=O)nnc2C(N)=O)cc1C [Example 209, (R)-3-((1-amino-4-methyl-1-oxopentan-2-yl)amino)-5-((3,4-dimethylphenyl)amino)-1,2,4-triazine-6-carboxamide]
IC50: 1 to 10 nM

Cc1ccc(Nc2nc(N[C@@H]3CCCC(F)(F)[C@@H]3N)nnc2C(N)=O)cc1C [Example 204, 3-(((1R,2R)-2-amino-3,3-difluorocyclohexyl)amino)-5-((3,4-dimethylphenyl)amino)-1,2,4-triazine-6-carboxamide]
IC50: 10 to 100 nM

NC(=O)c1nnc(N[C@@H]2CCOC[C@@H]2N)nc1Nc1ccc2c(c1)CCC2 [Example 223, 3-(((3R,4R)-3-aminotetrahydro-2H-pyran-4-yl)amino)-5-((2,3-dihydro-1H-inden-5-yl)amino)-1,2,4-triazine-6-carboxamide]
IC50: 1 to 10 nM

Cn1ccc2c(Nc3nc(N[C@@H]4CCCC[C@@H]4N)nnc3C(N)=O)ccnc21 [Example 129, 3-(((1R,2S)-2-aminocyclohexyl)amino)-5-((1-methyl-1H-pyrrolo[2,3-b]pyridin-4-yl)amino)-1,2,4-triazine-6-carboxamide]
IC50: < 1 nM

CC[C@@H](Nc1nnc(C(N)=O)c(Nc2ccc3c(c2)c(C#N)cn3C)n1)C(N)=O [Example 183, (R)-3-((1-amino-1-oxobutan-2-yl)amino)-5-((3-cyano-1-methyl-1H-indol-5-yl)amino)-1,2,4-triazine-6-carboxamide]
IC50: < 1 nM

CC(C)C[C@@H](Nc1nnc(C(N)=O)c(Nc2cccc3c2cnn3C)n1)C(N)=O [Example 108, (R)-3-((1-amino-4-methyl-1-oxopentan-2-yl)amino)-5-((1-methyl-1H-indazol-4-yl)amino)-1,2,4-triazine-6-carboxamide]
IC50: 10 to 100 nM

C[C@@H](Nc1nnc(C(N)=O)c(Nc2ccc3ccn(C)c3c2)n1)C(N)=O [Example 164, (R)-3-((1-amino-1-oxopropan-2-yl)amino)-5-((1-methyl-1H-indol-6-yl)amino)-1,2,4-triazine-6-carboxamide]
IC50: 10 to 100 nM

NC(=O)c1nnc(N[C@@H]2CCCC[C@@H]2N)nc1Nc1cccc(-n2cccn2)c1 [Example 6, 5-(3-(1H-pyrazol-1-yl)phenylamino)-3-((1R,2S)-2-aminocyclohexylamino)-1,2,4-triazine-6-carboxamide]
IC50: 1 to 10 nM

CC[C@@H](Nc1nnc(C(N)=O)c(Nc2ccc(C)c(F)c2)n1)C(N)=O [Example 196, (R)-3-((1-amino-1-oxobutan-2-yl)amino)-5-((3-fluoro-4-methylphenyl)amino)-1,2,4-triazine-6-carboxamide]
IC50: 10 to 100 nM

Cn1ncc2c(Nc3nc(N[C@@H]4CCCC(F)(F)[C@@H]4N)nnc3C(N)=O)cccc21 [Example 117, 3-(((1R,2R)-2-amino-3,3-difluorocyclohexyl)amino)-5-((1-methyl-1H-indazol-4-yl)amino)-1,2,4-triazine-6-carboxamide]
IC50: 10 to 100 nM
